The record followed here is US11427553B2, “Dihydrooxadiazinones” (Bayer Aktiengesellschaft, priority 2017, dated 2022).

Data set [1] in a line: Assay 7 in vivo pharmacokinetics in non-rodents (dogs). As to conditions: i.v. More on the design: species or system Beagle dogs. On the procedure: Assay 7 In Vivo Pharmacokinetics in Non-Rodents (e.g. Dogs)
For in vivo pharmacokinetic experiments test compounds were administered to non-rodents (e.g. female Beagle dogs) intravenously (i.v.) at doses of 0.1 to 1 mg/kg and intragastrally (i.g.) at doses of 0.3 to 3 mg/kg formulated as solutions using solubilizers such as e.g. PEG400 in well-tolerated amounts and are usually given as short term infusion (15 min).
Blood samples were taken e.g. at 2 min, 8 min, 15 min, 30 min, 45 min, 1 h, 2 h, 4 h, 6 h, 8 h and 24 h after dosing from the vena saphena.
For pharmacokinetics after intragastral administration test compounds were given intragastrally to fasted non-rodents (e.g. dogs). Blood samples were taken e.g. at 5 min, 15 min, 30 min, 45 min, 1 h, 2 h, 4 h, 6 h, 8 h and 24 h after dosing. […] Blood was collected into Lithium-Heparin tubes (Monovetten@, Sarstedt) and centrifuged for 15 min at 3000 rpm. A small aliquot (e.g. 100 μL) from the supernatant (plasma) was taken and precipitated by addition of an aliquot ice cold acetonitrile (e.g. of 400 μL) and frozen at −20° C. over night. Samples were subsequently thawed and centrifuged at 3000 rpm, 4° C. for 20 minutes. Aliquots of the supernatants were taken for analytical testing using an Agilent HPLC-system with LCMS/MS detection. PK parameters were calculated by non-compartmental analysis using a PK calculation software.
PK parameters derived from concentration-time profiles after i.v.: CLplasma: Total plasma clearance of test compound (in L/kg/h); CLblood: Total blood clearance of test compound: CLplasma*Cp/Cb (abbreviation: CLp;) in L/kg/h) with Cp/Cb being the ratio of concentrations in plasma and blood.
PK parameters calculated from concentration time profiles after […].: Cmax: Maximal plasma concentration (in mg/L); Cmaxnorm: Cmax divided by the administered dose (in kg/L); Tmax: Time point at which Cmax was observed (in h). Parameters calculated from both, i.v. and i.g. concentration-time profiles: AUCnorm: Area under the concentration-time curve from t=0 h to infinity (extrapolated) divided by the administered dose (in kg*h/L); AUC(0-tlast)norm: Area under the concentration-time curve from t=0 h to the last time point for which plasma concentrations could be measured divided by the administered dose (in kg*h/L); t1/2: terminal half-life (in h); F: oral bioavailability: AUCnorm after intragastral administration divided by AUCnorm after intravenous administration (in %).

The next data set has as its target human full length PDE3A (Homo sapiens (Human), UniProt Q14432). Put plainly: Assay 4 PDE3A enzyme inhibition (3H-cAMP SPA). The class given is biochemical. The settings on record: Sf9 cell extract. Put shortly: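 In this SPA format, the 60-min room-temperature reaction used 0.025 μCi [8-3H]cAMP and diluted full-length PDE3A from Sf9 cells. Percentage activity was plotted against log compound concentration to derive IC50.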

The next data set relates to A2058 cells. Put plainly: Assay 2 cell proliferation measurement, A2058. The settings on record: Homo sapiens, Melanoma, read-out: Anti-proliferation IC50 [nM] A2058. The data set is classed as cell-based. Here is the method: (§1) Cell Proliferation Measurement
(§2) The antiproliferative activity of the compounds of the general formula (I) was examined in vitro in human cancer cells. For this purpose, 500 cells, including HeLa cells, A2058 cells, DU145 cells, HMCB cells, IGR37 cells, NCIH1734 cells, OSRC2 cells, or 750 cells, including CAL51 cells, COL0741 cells, DBTRG05MG cells, DKMG cells, G292CLONEA141B1 cells, GB1 cells, HEL cells, HEL9217 cells, JHUEM1 cells, L3.3 cells, LI7 cells, TE4 cells, or 1000 cells, including 8505C cells, HUT78 cells, NCIH1563 cells, NCIH2122 cells, NCIH2172 cells, RVH421 cells, SKMEL3 cells, or 1500 cells, including C32 cells, HS578T cells, JHOM1 cells, NCIH196 cells, OVKATE cells, were plated in 384-well plates with appropriate growth medium and incubated at 37° C. overnight. After 24 h, the cells on the test plate were treated with the compounds of the general formula (I) as and incubated at 37° C. for 72 h. The compounds were added to the cells by means of an HP D300 digital dispenser in a 10 (or more)-step dilution series. As control, the cells were treated with vehicle (DMSO at 0.3% final concentration). After 72 h, the cells were treated with 20 μl/well of 50% CTG solution in PBS (Promega Cell Titer Glo (catalogue #G755B and G756B)) and incubated at room temperature for 10 min, and luminescence was measured by means of a VICTOR V (Perkin Elmer), in order to determine cell viability at the end of treatment. The percentage effect on cell growth and the IC50 derived therefrom were determined for each test substance using the values from untreated wells (=percent viability). The IC50 values were calculated using a 4-parameter fit.

For the next data set, the system named is C32 cells. Put plainly: Assay 2 cell proliferation measurement, C32. The data set is classed as cell-based. As to conditions: Homo sapiens, Melanoma, read-out: Anti-proliferation IC50 [nM] C32. Here is the method:
as §1, §2

Chain of human full length PDE3A (Q14432 whole entry): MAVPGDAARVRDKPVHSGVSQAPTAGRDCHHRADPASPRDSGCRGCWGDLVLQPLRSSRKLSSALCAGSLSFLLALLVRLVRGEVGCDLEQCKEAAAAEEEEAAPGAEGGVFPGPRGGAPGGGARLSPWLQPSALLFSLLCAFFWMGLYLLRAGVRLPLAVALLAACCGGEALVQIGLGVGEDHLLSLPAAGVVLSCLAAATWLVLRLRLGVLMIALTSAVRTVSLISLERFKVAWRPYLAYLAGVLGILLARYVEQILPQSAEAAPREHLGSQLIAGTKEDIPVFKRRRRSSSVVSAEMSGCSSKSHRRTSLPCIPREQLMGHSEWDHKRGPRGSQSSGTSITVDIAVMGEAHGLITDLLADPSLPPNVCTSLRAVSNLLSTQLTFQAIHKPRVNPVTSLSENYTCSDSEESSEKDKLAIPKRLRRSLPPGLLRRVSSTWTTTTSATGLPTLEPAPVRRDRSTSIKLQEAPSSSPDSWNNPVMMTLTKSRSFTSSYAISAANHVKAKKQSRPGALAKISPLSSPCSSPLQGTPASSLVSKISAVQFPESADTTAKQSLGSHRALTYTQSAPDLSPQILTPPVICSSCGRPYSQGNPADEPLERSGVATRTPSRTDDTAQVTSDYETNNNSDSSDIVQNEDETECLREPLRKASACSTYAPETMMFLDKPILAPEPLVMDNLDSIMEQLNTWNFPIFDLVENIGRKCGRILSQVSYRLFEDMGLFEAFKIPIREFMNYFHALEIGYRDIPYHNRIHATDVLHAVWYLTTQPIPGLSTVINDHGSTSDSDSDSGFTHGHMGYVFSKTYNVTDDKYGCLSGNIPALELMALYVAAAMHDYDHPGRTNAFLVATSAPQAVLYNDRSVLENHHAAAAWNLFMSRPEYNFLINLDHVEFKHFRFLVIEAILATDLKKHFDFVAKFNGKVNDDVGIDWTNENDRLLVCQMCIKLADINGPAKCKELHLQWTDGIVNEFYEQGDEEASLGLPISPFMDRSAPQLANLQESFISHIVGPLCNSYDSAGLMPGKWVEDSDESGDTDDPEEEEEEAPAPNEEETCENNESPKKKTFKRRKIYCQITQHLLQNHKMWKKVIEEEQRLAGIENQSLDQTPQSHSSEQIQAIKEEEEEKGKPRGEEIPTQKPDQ

As to `O=C1NN=C(c2ccc(-c3ccc(F)cc3)c(C(F)(F)F)c2)CO1` [Example 3, 5-[4′-Fluoro-2-(trifluoromethyl)biphenyl-4-yl]-3,6-dihydro-2H-1,3,4-oxadiazin-2-one], in data set [1], the “CLblood dog” value was 39.8 mL/min/kg. The compound further had an IC50 against human full length PDE3A of 285 nM.
Consider `O=C1NN=C(c2ccc(-c3ccc(Cl)cc3)c(C(F)(F)F)c2)CO1` [Example 31, 5-[4′-Chloro-2-(trifluoromethyl)biphenyl-4-yl]-3,6-dihydro-2H-1,3,4-oxadiazin-2-one], for which the “CLblood dog” value in data set [1] came to 8.17 mL/min/kg. In addition, the IC50 against human full length PDE3A turned out to be 310 nM.
For `C[C@@H]1OC(=O)NN=C1c1ccc(-c2ccc(F)cc2)c(C(F)(F)F)c1` [Example 135, (6S)-5-[4′-Fluoro-2-(trifluoromethyl)biphenyl-4-yl]-6-methyl-3,6-dihydro-2H-1,3,4-oxadiazin-2-one], in data set [1], the “CLblood dog” value is 8.17 mL/min/kg. In addition, the IC50 amounted to 87 nM on human full length PDE3A, 38 nM in the data set on A2058 cells and 58 nM with C32 cells.
As to `O=C1NN=C(c2ccc(-c3cnn(C(F)F)c3)c(C(F)(F)F)c2)CO1` [Example 146, 5-{4-[1-(Difluoromethyl)-1H-pyrazol-4-yl]-3-(trifluoromethyl)phenyl}-3,6-dihydro-2H-1,3,4-oxadiazin-2-one], in data set [1], the “CLblood dog” value came to 47.3 mL/min/kg. Moreover, the IC50 stood at 40 nM against human full length PDE3A, 25 nM in the data set on A2058 cells and 52 nM in the data set with C32 cells.
For the compound `C[C@@H]1OC(=O)NN=C1c1ccc(-n2ccc(C(F)(F)F)n2)c(C(F)(F)F)c1` [Example 265, (6S)-6-Methyl-5-{3-(trifluoromethyl)-4-[3-(trifluoromethyl)-1H-pyrazol-1-yl]phenyl}-3,6-dihydro-2H-1,3,4-oxadiazin-2-one], the figures for the IC50 in the data set with A2058 cells and in the data set on C32 cells were 96 nM and 132 nM, respectively.
